These results are taken from patent US20090325877A1, “Combination Product of Receptor Tyrosine Kinase Inhibitor and Fatty Acid Synthase Inhibitor for Treating Cancer” (Wyeth, priority 2008, published 2009).

Assay [1] concerns FASN protein. As to the kind of experiment: FASN protein level by Western blotting in A2780 cells. The assay is classed as cell-based. To be noted: b102: within three days, pelitinib at doses as low as 3 μM. For orientation: In western blotting, separated proteins are transferred to a membrane and probed.
The subject of assay [2] is SKOV3 ovarian cancer cells. Kind of assay: Formazan dye (MTT) in-vitro cell growth assay, SKOV3. The assay is classed as cell-based. The following applies: for in vitro growth inhibition (in words): MTT assay, single drug. The procedure: Cells were plated at 0.5−5×10^3/well in 96-well plates. After adhesion, media ±drugs alone or in combination were added. Cell numbers were estimated after 3-5 days by using a colorimetric formazan dye assay (Biomedica, Vienna, Austria). […] Statistical analysis of data from drug combination treatment experiments was performed using one-factorial ANOVA followed by Scheffe-test.
(§1) Yellow MTT (3-(4,5-Dimethylthiazol-2-yl)-2,5-diphenyltetrazolium bromide, a tetrazole) is reduced to purple formazan in the mitochondria of living cells (see Mosmann, T., J. Immunol. Methods, 65(1-2): 55-63, 1983).
For orientation: Tetrazolium assays rely on reduction of a dye to a coloured formazan, in cell work by metabolically active cells.

Assay [3] relates to FASN mRNA. Kind of assay: FASN mRNA expression by qRT-PCR in A2780 cells. The following applies: b102: within three days, pelitinib at doses as low as 3 μM. The assay is classed as cell-based, human. The source says: (§2) RNA was extracted from the cells using TRI-REAGENT™ (Molecular Research Center, Cincinnati, Ohio) and subjected to reverse transcription—polymerase chain reaction (“RT-PCR”) using the TITAN ONE TUBE RT-PCR KIT™ system (Hoffmann-La Roche). Primers were: EGFR: 5′-[…]-3′ (SEQ ID NO:1) (forward, E1S) 5′-[…]-3′ (SEQ ID NO:2) (reverse, E1A); ErbB-2: 5′-[…]-3′ (SEQ ID NO:3) (forward, E2S2), 5′-[…]-3′ (SEQ ID NO:4) (reverse, E2A2); GAPDH: 5′-[…]-3′ (SEQ ID NO:5) (forward, GAPDH3S), 5′-[…]-3′ (SEQ ID NO:6) (reverse, GAPDH3A). Conditions for reverse transcription and amplification of the EGFR coding sequence were: 50° C., 30 minutes; 94° C., 2 minutes; 10 cycles (94° C., 30 seconds; 64.9° C., 30 seconds; 68° C., 90 seconds); 30 cycles (94° C., 30 seconds; 64.9° C., 30 seconds; 68° C., 90 seconds +5 seconds autoextension) and 68° C., 7 minutes. Conditions for ErbB2 and GAPDH were: 50° C., 30 minutes; 94° C., 2 minutes; 10 cycles (94° C., 30 seconds; 51° C., 30 seconds; 68° C., 45 seconds); 25 cycles (94° C., 30 seconds; 51° C., 30 seconds; 68° C., 45 seconds +5 seconds autoextension) and 68° C., 7 minutes. DNA products had the following sizes: EGFR: 1452 bp, ErbB2: 900 bp, GAPDH: 488 bp. Fragments were electrophoresed and stained with ethidium bromide.
(§3) Quantitative RT-PCR (“qRT-PCR”) was performed in the ABI PRISM 7000™ Sequence Detector (Applied Biosystems, Foster City, Calif.) using human EGFR, ErbB2, and FASN TaqMan® Gene Expression Assay systems (Applied Biosystems; Assay IDs: Hs00193306_m1, Hs00170433_m1, Hs00188012_m1) according to the manufacturer's instructions. β-actin and GAPDH (VIC™ and FAM labeled pre-developed TaqMan® Assay reagents, Applied Biosystems) were used as endogenous controls. EGFR, ErbB2, and FASN mRNA expression were calculated as described previously (Grunt, ibid).

The test system of assay [4] is A2780 ovarian cancer cells. As to the kind of experiment: Formazan dye (MTT) in-vitro cell growth assay, A2780. Type of assay: cell-based. The following applies: for in vitro growth inhibition (in words): A2780, MTT assay, single drug. The procedure: Effect of FAS and ErbB inhibition on A2780 ovarian cancer cells (OCC). […] Cells were grown for three days in the presence of vehicle (0.1% DMSO) or synthetic inhibitor before cell number was estimated. Data in the charts represent means +/−SD of triplicate measurements.
Cells were plated at 0.5−5×10^3/well in 96-well plates. After adhesion, media ±drugs alone or in combination were added. Cell numbers were estimated after 3-5 days by using a colorimetric formazan dye assay (Biomedica, Vienna, Austria). Results (mean±SD, n=3) were expressed in percent of untreated (solvent) control. Statistical analysis of data from drug combination treatment experiments was performed using one-factorial ANOVA followed by Scheffe-test.
as §1

The next assay concerns ErbB2 mRNA. As to the kind of experiment: ErbB2 mRNA by RT-PCR and qRT-PCR in A2780 cells. Type of assay: cell-based, human.
Excerpt: as §2, §3
For orientation: Quantitative PCR measures a nucleic acid by following its amplification.

A further assay has as its system ErbB2 protein. As to the kind of experiment: Total and phosphorylated ErbB2 protein by Western blot in A2780 cells. Type of assay: cell-based. How it is done:
(§4) Cells plated in culture media containing 5% fetal calf serum at a density of 2.6×10^5 (SKOV3) or 6×10^5 (A2780) in 60 mm dishes (Corning, Corning, N.Y.) were treated with FASN inhibitor C75, with small-molecule ErbB RTK inhibitors (RTKIs), with the MEK1/2 antagonist U0126 or with the PI3K inhibitor LY294002 for the indicated times and at various concentrations. In some experiments cells were stimulated for 5 or 10 min with 100 ng/ml EGF (Sigma) before lysis in RIPA buffer (Grunt et al., Biochem Biophys Res Commun 329:1253-1259, 2005). Proteins (20 μg/lane) were subjected to SDS-PAGE, blotted onto PVDF membranes and immunostained (see Grunt, ibid) using the following antibodies: 2 μg/ml goat anti-pEGFR(Tyr1173) (sc-12351), 1 μg/ml rabbit anti-ErbB2 (C-18) (sc-284), 1 μg/ml rabbit anti-pErbB2(Tyr1248) (sc-12352-R) (all from Santa Cruz Biotechnology Inc., Santa Cruz, Calif.), rabbit anti-EGFR 1:1,000 (2232), rabbit anti-AKT 1:1,000 (9272), rabbit anti-pAKT(Ser473) 1:1,000 (9271), rabbit anti-pAKT(Thr308) 1:1,000 (9275), rabbit anti-pERK1/2(Thr202/Tyr204) 1:1,000 (9101) (all from Cell Signaling Technology), rabbit anti-ERK1/2 1:3,000 (06-182, Upstate Biotechnology Inc., Lake Placid, N.Y.), 0.5 μg/ml mouse monoclonal anti-FASN (610963, BD Biosciences, San Jose, Calif.), or 0.67 μg/ml goat anti-human actin (1-19, sc-1616, Santa Cruz Biotechnology). Secondary antibodies were peroxidase-tagged donkey-anti-rabbit IgG (V795A, Promega, Madison, Wis.) or donkey-anti-goat IgG (sc-2020, Santa Cruz Biotechnology) at 1:15,000, respectively, or chicken anti-mouse IgG (sc-2954, Santa Cruz Biotechnology) at 1:10,000. Detection was performed by enhanced chemiluminescence.

Another assay relates to EGFR mRNA. Kind of assay: EGFR mRNA by RT-PCR and qRT-PCR in A2780 cells. The assay is classed as cell-based, human. The procedure: RNA was extracted from the cells using TRI-REAGENT™ (Molecular Research Center, Cincinnati, Ohio) and subjected to reverse transcription—polymerase chain reaction (“RT-PCR”) using the TITAN ONE TUBE RT-PCR KIT™ system (Hoffmann-La Roche). […] Conditions for ErbB2 and GAPDH were: 50° C., 30 minutes; 94° C., 2 minutes; 10 cycles (94° C., 30 seconds; 51° C., 30 seconds; 68° C., 45 seconds); 25 cycles (94° C., 30 seconds; 51° C., 30 seconds; 68° C., 45 seconds +5 seconds autoextension) and 68° C., 7 minutes. […] Fragments were electrophoresed and stained with ethidium bromide.
as §3

The next assay concerns EGFR protein. Kind of assay: EGFR protein and tyrosine phosphorylation by Western blot in A2780 cells. The assay is classed as cell-based.
Assay [5] relates to FASN mRNA. As to the kind of experiment: FASN mRNA levels in SKOV3 cells. The assay is classed as cell-based, human.
Excerpt: RNA was extracted from the cells using TRI-REAGENT™ (Molecular Research Center, Cincinnati, Ohio) and subjected to reverse transcription—polymerase chain reaction (“RT-PCR”) using the TITAN ONE TUBE RT-PCR KIT™ system (Hoffmann-La Roche). Primers were: EGFR: 5′-[…]-3′ (SEQ ID NO:1) (forward, E1S) 5′-[…]-3′ (SEQ ID NO:2) (reverse, E1A); ErbB-2: 5′-[…]-3′ (SEQ ID NO:3) (forward, E2S2), 5′-[…]-3′ (SEQ ID NO:4) (reverse, E2A2); GAPDH: 5′-[…]-3′ (SEQ ID NO:5) (forward, GAPDH3S), 5′-[…]-3′ (SEQ ID NO:6) (reverse, GAPDH3A). Conditions for reverse transcription and amplification of the EGFR coding sequence were: 50° C., 30 minutes; 94° C., 2 minutes; 10 cycles (94° C., 30 seconds; 64.9° C., 30 seconds; 68° C., 90 seconds); 30 cycles (94° C., 30 seconds; 64.9° C., 30 seconds; 68° C., 90 seconds +5 seconds autoextension) and 68° C., 7 minutes. […]
as §3

Assay [6] deals with FASN protein. Kind of assay: FASN protein levels by Western blotting in SKOV3 cells. Type of assay: cell-based. How it is done: as §4, with “Secondary antibodies were peroxidase-tagged donkey-anti-rabbit IgG (V795A, Promega, Madison, Wis.) or donkey-anti-goat IgG (sc-2020, Santa Cruz Biotechnology) at 1:15,000, respectively, or chicken anti-mouse IgG (sc-2954, Santa Cruz Biotechnology) at 1:10,000. Detection was performed by enhanced chemiluminescence.” left out

Where two headings read alike, the source gives them in different places.

Turning to `C#Cc1cccc(Nc2ncnc3cc(OCCOC)c(OCCOC)cc23)c1` [erlotinib], the “FASN protein expression, effect in words” value with FASN protein [1] is recorded as “effect was also seen”. The “in vitro growth inhibition (in words)” value in assay [2] and in [4] was “does not significantly inhibit growth” each time. For the same molecule, the “FASN mRNA expression, effect in words” value in the assay with FASN mRNA [3] is “effect was also seen”.
In the case of `C=CC(=O)Nc1cc2c(Nc3ccc(F)c(Cl)c3)ncnc2cc1OCCCN1CCOCC1` [canertinib], the “FASN protein expression, effect in words” value in the assay with FASN protein [1] is “effect was also seen”. Besides, the “ErbB2 mRNA, effect in words” value with ErbB2 mRNA is listed as “fails to down-regulate”. Further, the “in vitro growth inhibition (in words)” value in assay [2] and in assay [4] was “growth inhibitory activity” in each case. In addition, in the assay on ErbB2 protein, the “phosphorylated ErbB2 (pErbB2), effect in words” value is recorded as “strongly diminishes”. Further, the “total ErbB2 protein, effect in words” value in the assay with ErbB2 protein is reported as “slightly attenuates”. In addition, in the assay with FASN mRNA [3], the “FASN mRNA expression, effect in words” value is “effect was also seen”. The “EGFR mRNA, effect in words” value in the assay on EGFR mRNA is reported as “does not diminish”. The “EGFR total protein, effect in words” value in the assay on EGFR protein is “does not diminish”.
In the case of `CCOc1cc2ncc(C#N)c(Nc3ccc(F)c(Cl)c3)c2cc1NC(=O)C=CCN(C)C` [EKB-569, 4-Dimethylamino-but-2-enoic acid [4-(3-chloro-4-fluoro-phenylamino)-3-cyano-7-ethoxy-quinolin-6-yl]-amide], the “FASN protein expression, effect in words” value with FASN protein [1] was “represses”; in the assay with FASN protein [1] (listed as pelitinib), “abrogated”. Moreover, the “ErbB2 mRNA, effect in words” value with ErbB2 mRNA was “only weakly depresses”; in the assay on ErbB2 mRNA (listed as pelitinib), “do not appear to be affected”. Moreover, the “in vitro growth inhibition (in words)” value in [2] and in [4] was “growth inhibitory activity” each time. Also, the “phosphorylated ErbB2 (pErbB2), effect in words” value in the assay with ErbB2 protein is “abolishes”; with ErbB2 protein (listed as pelitinib) it was “abrogated”. For the same molecule, the “total ErbB2 protein, effect in words” value is “abolishes” with ErbB2 protein and “abrogated” with ErbB2 protein (listed as pelitinib). In addition, the figures for the “FASN mRNA expression, effect in words” value in the assay on FASN mRNA [3] and with FASN mRNA [3] (listed as pelitinib) were “represses” and “abrogated”, respectively. In addition, the entries for the “EGFR mRNA, effect in words” value in the assay on EGFR mRNA and with EGFR mRNA (listed as pelitinib) were “weak dose-dependent repression” and “dose-dependent down-regulation”, respectively. Moreover, the “EGFR total protein, effect in words” value with EGFR protein is “abolishes”; with EGFR protein (listed as pelitinib) it was “dose-dependent down-regulation”. Moreover, the “EGFR tyrosine phosphorylation (activity), effect in words” value in the assay with EGFR protein was “dose-dependent reduction”; with EGFR protein (listed as pelitinib) it was “completely abrogates”. Besides, the IC50 in assay [4] (Homo sapiens, 72 h, A2780 OCC, each individual inhibitor, 50% reduction of cell growth, three days, n = 3-5, read-out: IC50 (μM) Mean +/− SD) was 5.14 µM.
In the case of `N#CC(=C(/N)Sc1ccccc1N)/C(C#N)=C(\N)Sc1ccccc1N` [U0126], in the assay with FASN mRNA [5], the “FASN mRNA levels, effect in words” value is “does not affect”. Further, the “FASN protein levels, effect in words” value in the assay on FASN protein [6] was “does not affect”.

B1: matuzumab: Humanized mAb; EGFR (antibody, chains of the INN, looked up, V domains shown)
VH: QVQLVQSGAEVKKPGASVKVSCKASGYTFTSHWMHWVRQAPGQGLEWIGEFNPSNGRTNYNEKFKSKATMTVDTSTNTAYMELSSLRSEDTAVYYCASRDYDYDGRYFDYWGQGTLVTVSS
VL: DIQMTQSPSSLSASVGDRVTITCSASSSVTYMYWYQQKPGKAPKLLIYDTSNLASGVPSRFSGSGSGTDYTFTISSLQPEDIATYYCQQWSSHIFTFGQGTKVEIK
Regarding B1, the growth inhibition in [2] (antibody alone at 20 μg/ml) is ~10%.
